In ChEMBL document CHEMBL3352218, “Structural basis for inhibition of mycobacterial and human adenosine kinase by 7-substituted 7-(Het)aryl-7-deazaadenine ribonucleosides” (J Med Chem, 2014):
In brackets after ≈: the same amount, converted by molar mass.

What follows are compounds tested on Mycobacterium tuberculosis (assay: Antimycobacterial activity against multidrug resistant Mycobacterium tuberculosis Praha 131 assessed as microbial growth inhibition incubated for 14 days). Conditions: Praha 131, 336 h.
Type: functional

Row | SMILES | MIC [µM]
1 | Nc1ncnc2c1c(-c1ccccc1)cn2[C@@H]1O[C@H](CO)[C@@H](O)[C@H]1O | 8 (≈ 2.74 µg/mL)
2 | COc1ccc(-c2cn([C@@H]3O[C@H](CO)[C@@H](O)[C@H]3O)c3ncnc(N)c23)cc1 | 16 (≈ 5.96 µg/mL)
3 | CSc1ccc(-c2cn([C@@H]3O[C@H](CO)[C@@H](O)[C@H]3O)c3ncnc(N)c23)cc1 | 8 (≈ 3.11 µg/mL)
4 | Nc1ncnc2c1c(-c1cccc3ccccc13)cn2[C@@H]1O[C@H](CO)[C@@H](O)[C@H]1O | 32 (≈ 12.6 µg/mL)
5 | Nc1ncnc2c1c(-c1ccc3ccccc3c1)cn2[C@@H]1O[C@H](CO)[C@@H](O)[C@H]1O | 4 (≈ 1.57 µg/mL)
6 | Nc1ncnc2c1c(-c1ccco1)cn2[C@@H]1O[C@H](CO)[C@@H](O)[C@H]1O | 62.5 (≈ 20.8 µg/mL)
7 | Nc1ncnc2c1c(-c1cccs1)cn2[C@@H]1O[C@H](CO)[C@@H](O)[C@H]1O | 8 (≈ 2.79 µg/mL)
8 | Nc1ncnc2c1c(-c1ccoc1)cn2[C@@H]1O[C@H](CO)[C@@H](O)[C@H]1O | 16 (≈ 5.32 µg/mL)
9 | Nc1ncnc2c1c(-c1ccsc1)cn2[C@@H]1O[C@H](CO)[C@@H](O)[C@H]1O | 8 (≈ 2.79 µg/mL)
10 | Nc1ncnc2c1c(-c1cc3ccccc3o1)cn2[C@@H]1O[C@H](CO)[C@@H](O)[C@H]1O | 16 (≈ 6.12 µg/mL)
11 | Nc1ncnc2c1c(-c1ccc[nH]1)cn2[C@@H]1O[C@H](CO)[C@@H](O)[C@H]1O | 62.5 (≈ 20.7 µg/mL)
12 | Nc1ncnc2c1c(-c1cc[nH]c1)cn2[C@@H]1O[C@H](CO)[C@@H](O)[C@H]1O | 62.5 (≈ 20.7 µg/mL)
13 | Nc1ncnc2c1c(-c1cn[nH]c1)cn2[C@@H]1O[C@H](CO)[C@@H](O)[C@H]1O | 125 (≈ 41.5 µg/mL)
14 | Nc1ncnc2c1c(-c1cc[nH]n1)cn2[C@@H]1O[C@H](CO)[C@@H](O)[C@H]1O | > 250
15 | C#Cc1cn([C@@H]2O[C@H](CO)[C@@H](O)[C@H]2O)c2ncnc(N)c12 | 8 (≈ 2.32 µg/mL)
16 | Nc1ncnc2c1c(-c1c[nH]nn1)cn2[C@@H]1O[C@H](CO)[C@@H](O)[C@H]1O | > 250
17 | Nc1ncnc2c1c(-c1nccs1)cn2[C@@H]1O[C@H](CO)[C@@H](O)[C@H]1O | 125 (≈ 43.7 µg/mL)
18 | Nc1ncnc2c1c(-c1c[nH]cn1)cn2[C@@H]1O[C@H](CO)[C@@H](O)[C@H]1O | > 250

Row | SMILES | MIC [µM]
19 | Nc1ncnc2c1c(-c1ncc[nH]1)cn2[C@@H]1O[C@H](CO)[C@@H](O)[C@H]1O | > 250
20 | Cc1ccc(-c2cn([C@@H]3O[C@H](CO)[C@@H](O)[C@H]3O)c3ncnc(N)c23)cc1C | 8 (≈ 2.96 µg/mL)
21 | CC(C)c1cccc(-c2cn([C@@H]3O[C@H](CO)[C@@H](O)[C@H]3O)c3ncnc(N)c23)c1 | 32 (≈ 12.3 µg/mL)
22 | CC(C)c1ccc(-c2cn([C@@H]3O[C@H](CO)[C@@H](O)[C@H]3O)c3ncnc(N)c23)cc1 | 16 (≈ 6.15 µg/mL)
23 | CC(C)(C)c1ccc(-c2cn([C@@H]3O[C@H](CO)[C@@H](O)[C@H]3O)c3ncnc(N)c23)cc1 | 62.5 (≈ 24.9 µg/mL)
24 | Nc1ncnc2c1c(-c1ccc(C(F)(F)F)cc1)cn2[C@@H]1O[C@H](CO)[C@@H](O)[C@H]1O | 4 (≈ 1.64 µg/mL)
25 | CC(C)Oc1ccc(-c2cn([C@@H]3O[C@H](CO)[C@@H](O)[C@H]3O)c3ncnc(N)c23)cc1 | 32 (≈ 12.8 µg/mL)
26 | Nc1ncnc2c1c(-c1ccc3c(c1)OCO3)cn2[C@@H]1O[C@H](CO)[C@@H](O)[C@H]1O | 8 (≈ 3.09 µg/mL)
27 | COc1cc(-c2cn([C@@H]3O[C@H](CO)[C@@H](O)[C@H]3O)c3ncnc(N)c23)cc(OC)c1OC | 8 (≈ 3.46 µg/mL)
28 | Nc1ncnc2c1c(-c1ccc3c4c(cccc14)CC3)cn2[C@@H]1O[C@H](CO)[C@@H](O)[C@H]1O | 16 (≈ 6.7 µg/mL)
29 | Nc1ncnc2c1c(-c1cc3ccccc3c3ccccc13)cn2[C@@H]1O[C@H](CO)[C@@H](O)[C@H]1O | 32 (≈ 14.2 µg/mL)
30 | Nc1ncnc2c1c(-c1cccc3c1oc1ccccc13)cn2[C@@H]1O[C@H](CO)[C@@H](O)[C@H]1O | 4 (≈ 1.73 µg/mL)
31 | Nc1ncnc2c1c(-c1cccc3c1Oc1ccccc1S3)cn2[C@@H]1O[C@H](CO)[C@@H](O)[C@H]1O | 16 (≈ 7.43 µg/mL)
32 | Nc1ncnc2c1c(-c1cccc3c1Sc1ccccc1S3)cn2[C@@H]1O[C@H](CO)[C@@H](O)[C@H]1O | 125 (≈ 60.1 µg/mL)
33 | Nc1ncnc2c1c(/C=C/c1ccccc1)cn2[C@@H]1O[C@H](CO)[C@@H](O)[C@H]1O | 8 (≈ 2.95 µg/mL)
34 | Nc1ncnc2c1c(-c1ccc(-c3ccccc3)cc1)cn2[C@@H]1O[C@H](CO)[C@@H](O)[C@H]1O | 4 (≈ 1.67 µg/mL)
35 | Nc1ncnc2c1c(-c1ccc(-c3ccc4ccccc4c3)cc1)cn2[C@@H]1O[C@H](CO)[C@@H](O)[C@H]1O | 62.5 (≈ 29.3 µg/mL)
36 | Nc1ncnc2c1c(-c1ccc(COc3cccc4ccccc34)cc1)cn2[C@@H]1O[C@H](CO)[C@@H](O)[C@H]1O | 32 (≈ 16 µg/mL)
